Activity calls are given as the source filed them. The rule behind the calls is not given here.
Legend:
[1] = target: T1, Gonadotropin-releasing hormone receptor (Homo sapiens, UniProt P30968); test: Inhibition of human GnRHR expressed in RBL cells assessed as inhibition of GnRH-stimulated [3H]inositol phosphate hydrolysis; format: functional, cell-based
T1 sequence (P30968 whole entry): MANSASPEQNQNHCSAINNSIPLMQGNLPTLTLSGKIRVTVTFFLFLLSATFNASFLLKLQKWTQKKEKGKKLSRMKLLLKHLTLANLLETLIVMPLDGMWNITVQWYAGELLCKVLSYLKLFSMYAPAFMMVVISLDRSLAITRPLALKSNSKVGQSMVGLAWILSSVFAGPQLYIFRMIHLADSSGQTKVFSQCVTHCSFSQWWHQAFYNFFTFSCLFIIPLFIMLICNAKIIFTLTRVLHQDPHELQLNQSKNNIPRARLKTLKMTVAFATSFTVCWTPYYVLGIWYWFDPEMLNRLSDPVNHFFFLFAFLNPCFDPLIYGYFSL

[2] = target: T2, Gonadotropin-releasing hormone receptor (Rattus norvegicus, UniProt P30969); test: Displacement of [125I]-Tyr5, DLeu6, NMeLeu7, Pro-N-Et-GnRH from cloned rat GnRHR
T2 sequence (P30969 whole entry): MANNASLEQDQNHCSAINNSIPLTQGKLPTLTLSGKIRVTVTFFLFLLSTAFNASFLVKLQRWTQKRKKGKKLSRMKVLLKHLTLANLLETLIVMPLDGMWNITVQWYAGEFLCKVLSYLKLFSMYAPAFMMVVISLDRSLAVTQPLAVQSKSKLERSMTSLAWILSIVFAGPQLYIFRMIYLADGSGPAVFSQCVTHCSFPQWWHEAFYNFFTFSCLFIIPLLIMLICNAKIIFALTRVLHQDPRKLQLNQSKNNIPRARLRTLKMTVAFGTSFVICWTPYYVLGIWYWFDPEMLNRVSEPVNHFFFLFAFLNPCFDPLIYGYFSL

[3] = target: T2, Gonadotropin-releasing hormone receptor; test: Inhibition of GnRHR in rat pituitary cells assessed as inhibition of GnRH-stimulated LH release; format: functional, cell-based, Pituitary gland cell
[4] = target: T3, Gonadotropin-releasing hormone receptor (Rattus norvegicus) (UniProt P30969); test: Decrease in LH concentration in rat plasma at 1.5 mg/kg, ip after 24 hrs by radioimmunoassay; format: functional, organism-based; set-up: dose 1.5 mg/kg
T3 sequence (whole entry): T2 sequence (P30969 whole entry)

[5] = target: T3, Gonadotropin-releasing hormone receptor (Rattus norvegicus); test: Decrease in LH concentration in rat plasma at 15 mg/kg, ip after 24 hrs by radioimmunoassay; format: functional, organism-based; set-up: dose 15 mg/kg
[6] = AUC in rat at 1.5 mg/kg, ip after 24 hrs; format: ADME, organism-based; set-up: time < 24 hr, dose 1.5 mg/kg, route intraperitoneal; details: plasma
[7] = AUC in rat at 4.5 mg/kg, ip after 24 hrs; format: ADME, organism-based; set-up: time < 24 hr, dose 4.5 mg/kg, route intraperitoneal; details: plasma
[8] = AUC in rat at 15 mg/kg, ip after 24 hrs; format: ADME, organism-based; set-up: time < 24 hr, dose 15 mg/kg, route intraperitoneal; details: plasma

| SMILES | IC50 [1] | Ki [2] | IC50 [3] | also measured |
| --- | --- | --- | --- | --- |
| Cc1cc(C)cc(-c2[nH]c3c(c2[C@H](C)CNCCc2ccc(-c4nnn[nH]4)cc2)CN(C(=O)Cc2c(F)cccc2C(F)(F)F)CC3)c1 | 1.5 nM | 0.2 nM | 0.6 nM | Activity [4]: Dose-dependent effect; Activity [5]: Active; AUC at 24 h [6]: 1290 ng·h/mL; AUC at 24 h [7]: 2470 ng·h/mL; AUC at 24 h [8]: 6500 ng·h/mL |
| Cc1cc(C)cc(-c2[nH]c3c(c2[C@H](C)CNCCc2ccncc2)CN(C(=O)Cc2ccccc2Cl)CC3)c1 | 267 nM | 2.6 nM |  |  |
| Cc1cc(C)cc(-c2[nH]c3c(c2[C@H](C)CNCCc2ccncc2)CN(C(=O)C2C(C)(C)C2(C)C)CC3)c1 | 475 nM | 1.3 nM | 96 nM |  |
| Cc1cc(C)cc(-c2[nH]c3c(c2[C@H](C)CNCCC2CCOCC2)CN(C(=O)Cc2c(F)cccc2C(F)(F)F)CC3)c1 | 205 nM | 4.7 nM | 480 nM |  |
| CCn1c(=O)[nH]c2cc(CCNC[C@@H](C)c3c(-c4cc(C)cc(C)c4)[nH]c4c3CN(C(=O)Cc3c(F)cccc3C(F)(F)F)CC4)ccc2c1=O | 91 nM | 1.8 nM |  |  |
| Cc1cc(C)cc(-c2[nH]c3c(c2[C@H](C)CNCCc2ccc(C(=O)O)cc2)CN(C(=O)Cc2c(F)cccc2C(F)(F)F)CC3)c1 | 22 nM | 2 nM |  |  |
| Cc1cc(C)cc(-c2[nH]c3c(c2[C@H](C)CNCCc2ccncc2)CN(C(=O)C24CC5CC(CC(C5)C2)C4)CC3)c1 | 546 nM | 1.5 nM | 63 nM |  |
| Cc1cc(C)cc(-c2[nH]c3c(c2[C@H](C)CNCCc2ccncc2)CN(C(=O)Cc2ccccc2F)CC3)c1 | 271 nM | 1.8 nM | 280 nM |  |
| Cc1cc(C)cc(-c2[nH]c3c(c2[C@H](C)CNCCc2ccncc2)CNCC3)c1 | > 10000 nM | > 10000 nM |  |  |
| Cc1cc(C)cc(-c2[nH]c3c(c2[C@H](C)CNCCc2cnc4nn[nH]c4c2)CN(C(=O)Cc2c(F)cccc2C(F)(F)F)CC3)c1 | 9 nM | 0.6 nM | 6.4 nM |  |
| Cc1cc(C)cc(-c2[nH]c3c(c2[C@H](C)CNCc2ccc(-c4nnn[nH]4)cc2)CN(C(=O)Cc2c(F)cccc2C(F)(F)F)CC3)c1 | 1600 nM | 1600 nM |  |  |
| Cc1cc(C)cc(-c2[nH]c3c(c2[C@H](C)CNCCc2ccc4nccnc4c2)CN(C(=O)Cc2c(F)cccc2C(F)(F)F)CC3)c1 | 60 nM | 0.3 nM | 68 nM |  |
| Cc1cc(C)cc(-c2[nH]c3c(c2[C@H](C)CNCCc2ccc(-c4nnn[nH]4)nc2)CN(C(=O)Cc2c(F)cccc2C(F)(F)F)CC3)c1 | 7 nM | 0.6 nM | 44 nM |  |
| Cc1cc(C)cc(-c2[nH]c3c(c2[C@H](C)CNCCc2ccc4nn[nH]c4c2)CN(C(=O)Cc2c(F)cccc2C(F)(F)F)CC3)c1 | 26 nM | 0.5 nM | 1.2 nM |  |
| COc1ccccc1CC(=O)N1CCc2[nH]c(-c3cc(C)cc(C)c3)c([C@H](C)CNCCc3ccncc3)c2C1 | 462 nM | 5.6 nM |  |  |
| Cc1cc(C)cc(-c2[nH]c3c(c2[C@H](C)CNCCOc2ccc(-c4nnn[nH]4)cc2)CN(C(=O)Cc2c(F)cccc2C(F)(F)F)CC3)c1 | 63 nM | 6.2 nM |  |  |
| Cc1cc(C)cc(-c2[nH]c3c(c2[C@H](C)CNCCc2ccncc2)CN(C(=O)C2CCCC2)CC3)c1 | 3480 nM | 18 nM | 250 nM |  |
| Cc1cc(C)cc(-c2[nH]c3c(c2[C@H](C)CNCCc2ccc4nc(C)[nH]c4c2)CN(C(=O)Cc2c(F)cccc2C(F)(F)F)CC3)c1 | 87 nM | 1 nM |  |  |
| CC(=O)N1CCc2[nH]c(-c3cc(C)cc(C)c3)c([C@H](C)CNCCc3ccncc3)c2C1 | 8090 nM | 120 nM |  |  |
| Cc1cc(C)cc(-c2[nH]c3c(c2[C@H](C)CNCCc2cc4[nH]nnc4cc2F)CN(C(=O)Cc2c(F)cccc2C(F)(F)F)CC3)c1 | 16 nM | 0.7 nM | 28 nM |  |
| Cc1cc(C)cc(-c2[nH]c3c(c2[C@H](C)CNCCc2ccncc2)CN(C(=O)Cc2ccccc2)CC3)c1 | 1110 nM | 4.5 nM | 110 nM |  |
| Cc1cc(C)cc(-c2[nH]c3c(c2[C@H](C)CNCCc2ccncc2)CN(C(=O)Cc2c(F)cccc2C(F)(F)F)CC3)c1 | 62 nM | 0.5 nM | 57 nM |  |
| Cc1cc(C)cc(-c2[nH]c3c(c2[C@H](C)CNCCc2ccncc2)CN(C(=O)Cc2ccccc2C(F)(F)F)CC3)c1 | 86 nM | 1.5 nM | 47 nM |  |
| Cc1cc(C)cc(-c2[nH]c3c(c2[C@H](C)CNCCc2ccncc2)CN(C(=O)c2ccccc2)CC3)c1 | > 10000 nM | 660 nM |  |  |
| Cc1cc(C)cc(-c2[nH]c3c(c2[C@H](C)CN)CN(C(=O)Cc2c(F)cccc2C(F)(F)F)CC3)c1 | 4180 nM | 470 nM |  |  |
| Cc1cc(C)cc(-c2[nH]c3c(c2[C@H](C)CNCCc2ccc(=O)n(C)c2)CN(C(=O)Cc2c(F)cccc2C(F)(F)F)CC3)c1 | 32 nM | 0.4 nM |  |  |
